Data taken from patent US5399697A, “N,N',N'-trisubstituted-5-bisaminomethylene-1,3-dioxane-4,6-dione inhibitors of acyl-CoA:cholesterol-acyl transferase” (American Home Products Corporation, priority 1993, dated 1995).
pIC50: −log10 of the molar value.

Legend:
[1] = test system: acyl-coenzyme A: cholesterol acyltransferase; experiment: Inhibition of ACAT / intracellular cholesterol esterification in vitro (procedure of Ross et al.); format: cell-based; conditions: for pIC50: read-out: IC50
cholesterol absorption = experiment: 14C-cholesterol absorption in normal rats (oral gavage); format: in vivo; conditions: Rattus norvegicus; for ED50: normal fed rats
Description: Representative compounds were further tested in vivo to establish the percent inhibition of cholesterol absorption. In this study, normal rats were dosed (oral gavage) with ^14 C-cholesterol plus the test compound. Blood samples taken at six hours and/or intermittently up to twenty-four hours were analyzed and the percent inhibition of cholesterol absorption was calculated.

plasma cholesterol = experiment: Plasma cholesterol in cholesterol-cholic acid fed rats; format: in vivo; conditions: Rattus norvegicus, oral gavage; for change in vivo at 40 mg/kg / change in vivo at 100 mg/kg: read-out: % Decrease in Plasma Cholesterol; for ED50: fifty percent reduction of plasma cholesterol
Description: In addition, representative compounds were studied in vivo in cholesterol-cholic acid fed rats to determine the percent decrease of cholesterol in their plasma. This study involves rats which are, prior to testing, trained for one week to eat over a four hour time period each day. Upon initiation of the experiment, the rats diet is supplemented with 1.0 percent cholesterol and 0.25 percent cholic acid. The rats are dosed with the test compound by oral gavage just prior to adjust following the four hour feeding period. This is repeated for four days. On the fifth day, the rats are sacrificed and the total plasma cholesterol content is determined. The percent decrease in elevated plasma cholesterol levels is calculated in comparison with […].

[2] = test system: low density lipoprotein oxidation; experiment: Antioxidant properties, low density lipoprotein oxidation studies (Parthasarathy et al.); format: biochemical; conditions: result in words
Description: (§1) The use of antioxidants in the treatment of atherosclerosis is also known to be of therapeutic value.

lipoperoxide = experiment: Antioxidant properties, lipoperoxide study of Yagi; format: biochemical; conditions: result in words
Description: as §1

[3] = normal rats, read-out: % Inhibition of Absorption

Compound | % Inhibition ([1]; 25 μM) | pIC50 [1] | ED50 (plasma cholesterol) | antioxidant properties in low density lipoprotein oxidation studies [2] | antioxidant properties in the lipoperoxide study (lipoperoxide) | further results
CCCCCCOc1ccc(NC(=C2C(=O)OC(C)(C)OC2=O)N(Cc2ccc(CC(C)C)cc2)C(C)CCCCC)cc1 (stereo not drawn) [Compound 43, 5-[[[4-(Hexyloxy)phenyl]amino][(1-methylhexyl)[[4-(2methylpropyl)phenyl]methyl]amino]-methylene]-2,2-dimethyl-1,3-dioxane-4,6,-dione] | 97% | 6.39 | – | – | – | change in vivo at 10 mg/kg (cholesterol absorption; [3]): -52%; change in vivo at 40 mg/kg (plasma cholesterol; 96 h, four days): -67%
CCCCCC(C)N(Cc1ccc(CC(C)C)cc1)C(Nc1ccc(OC)cc1OC)=C1C(=O)OC(C)(C)OC1=O (stereo not drawn) [Compound 32, 5-[[(2,4-Dimethoxyphenyl)amino][(1-methylhexyl)[[4-(2-methylpropyl)phenyl]methyl]amino]-methylene]-2,2-dimethyl-1,3-dioxane-4,6-dione] | 98% | 6.62 | 17 mg/kg | – | – | ED50 (cholesterol absorption): 4 mg/kg; change in vivo at 20 mg/kg (cholesterol absorption; normal rats, 20 mg/kg, read-out: % Inhibition of Absorption): -79%; change in vivo at 60 mg/kg (plasma cholesterol; 96 h, heading: % Decrease in Plasma Cholesterol, four days, 60 mg/kg): -97%
CCCCCCCN(Cc1ccc(CC(C)(C)C)cc1)C(Nc1cc(C(C)(C)C)c(O)c(C(C)(C)C)c1)=C1C(=O)OC(C)(C)OC1=O [Compound 76, 5-[[[3,5-Bis(1,1-dimethylethyl)-4,1-hydrophenyl]amino][[[4-(2,2-dimethylpropyl)phenyl]methyl]heptylamino]methylene]-2,2-dimethyl-1,3-dioxane-4,6-dione] | 96% | 7.22 | – | demonstrated antioxidant properties | demonstrated antioxidant properties | –
CCCCCCN(Cc1ccc(CC(C)C)cc1)C(Nc1cc(C(C)(C)C)c(O)c(C(C)(C)C)c1)=C1C(=O)OC(C)(C)OC1=O [Compound 77] | 95% | – | – | demonstrated antioxidant properties | demonstrated antioxidant properties | –
CCCCCC(C)N(Cc1ccc(CC(C)(C)C)cc1)C(Nc1ccc(N(C)C)cc1)=C1C(=O)OC(C)(C)OC1=O (stereo not drawn) [Compound 37] | 99% | 6.16 | 18 mg/kg | – | – | change in vivo at 50 mg/kg (cholesterol absorption; normal rats, 50 mg/kg, read-out: % Inhibition of Absorption): -85%; change in vivo at 40 mg/kg (plasma cholesterol; 96 h, four days): -72%
CCCCCC(C)N(Cc1ccc(CC(C)(C)C)cc1)C(Nc1cc(C(C)(C)C)c(O)c(C(C)(C)C)c1)=C1C(=O)OC(C)(C)OC1=O (stereo not drawn) [Compound 75] | – | – | – | demonstrated antioxidant properties | demonstrated antioxidant properties | –
CCCCCC(C)N(Cc1ccc(C(C)(C)C)cc1)C(Nc1ccc(N(C)C)cc1)=C1C(=O)OC(C)(C)OC1=O (stereo not drawn) [Compound 21, 5-[[[4-(Dimethylamino)phenyl]amino][[[4-(1,1-dimethylethyl)phenyl]methyl](1-methylhexyl)-amino]methylene]-2,2-dimethyl-1,3-dioxane-4,6-dione] | 98% | 6.60 | – | – | – | change in vivo at 75 mg/kg (cholesterol absorption; normal rats, 75 mg/kg, read-out: % Inhibition of Absorption): -83%; change in vivo at 100 mg/kg (plasma cholesterol; 96 h, four days): -78%
CCCCCc1ccc(CN(C(Nc2ccc(OC)cc2OC)=C2C(=O)OC(C)(C)OC2=O)C(C)CCCCC)cc1 (stereo not drawn) [Compound 40] | 99% | 6.44 | 7 mg/kg | – | – | ED50 (cholesterol absorption): 2 mg/kg; change in vivo at 10 mg/kg (cholesterol absorption; [3]): -69%; change in vivo at 40 mg/kg (plasma cholesterol; 96 h, four days): -78%
CCCCCCCN(Cc1ccc(C(C)(C)C)cc1)C(Nc1ccc(OC)cc1OC)=C1C(=O)OC(C)(C)OC1=O [Compound 2] | – | 6.05 | 99 mg/kg | – | – | % Inhibition ([1]; 50 μM): 85%; ED50 (cholesterol absorption): 44 mg/kg; change in vivo at 200 mg/kg (cholesterol absorption; [3]): -88%
CCCCCCCN(Cc1ccc(C(C)(C)C)cc1)C(Nc1ccc(N(C)C)cc1)=C1C(=O)OC(C)(C)OC1=O [Compound 5, 5-[[[4-(Dimethylamino)phenyl]amino][[[4-(1,1-dimethylethyl)phenyl]methyl]heptylamino]methylene]-2,2-dimethyl-1,3-dioxane-4,6-dione] | 99% | 5.96 | – | – | – | change in vivo at 200 mg/kg (cholesterol absorption; [3]): -91%; change in vivo at 100 mg/kg (plasma cholesterol; 96 h, four days): -35%
CCCCCCN(Cc1ccc(CC(C)(C)C)cc1)C(Nc1cc(C(C)(C)C)c(O)c(C(C)(C)C)c1)=C1C(=O)OC(C)(C)OC1=O [Compound 79, 5-[[[3,5-Bis(1,1-dimethylethyl)-4-hydroxyphenyl]amino][[[4-(2,2-dimethylpropyl)phenyl]methyl]hexylamino]methylene]-2,2-dimethyl-1,3-dioxane-4,6-dione] | – | – | – | demonstrated antioxidant properties | demonstrated antioxidant properties | –
